From patent publication US7547680B2, “Benzimidazole derivatives and medical uses thereof” (Kissei Pharmaceuticals, Co., Ltd., priority 2004, dated 2009)

Key:
human CNT2 = biological target: T1, human CNT2 (Homo sapiens, UniProt O43868, I160M/P22L/S45C); test: Inhibitory activity against uptake of adenosine through human CNT2; format: cell-based; conditions: COS-7 cells transiently expressing human CNT2; adenosine 10 μM; NBMPR 10 μM; incubation 30 minutes at 37° C.
T1 construct: expressed in transfected cells; host or cells: COS-7 cells (RIKEN CELL BANK RCB0539), transient lipofection of pCI-neo plasmid
T1 sequence (O43868 1-658 P22L/S45C/I160M): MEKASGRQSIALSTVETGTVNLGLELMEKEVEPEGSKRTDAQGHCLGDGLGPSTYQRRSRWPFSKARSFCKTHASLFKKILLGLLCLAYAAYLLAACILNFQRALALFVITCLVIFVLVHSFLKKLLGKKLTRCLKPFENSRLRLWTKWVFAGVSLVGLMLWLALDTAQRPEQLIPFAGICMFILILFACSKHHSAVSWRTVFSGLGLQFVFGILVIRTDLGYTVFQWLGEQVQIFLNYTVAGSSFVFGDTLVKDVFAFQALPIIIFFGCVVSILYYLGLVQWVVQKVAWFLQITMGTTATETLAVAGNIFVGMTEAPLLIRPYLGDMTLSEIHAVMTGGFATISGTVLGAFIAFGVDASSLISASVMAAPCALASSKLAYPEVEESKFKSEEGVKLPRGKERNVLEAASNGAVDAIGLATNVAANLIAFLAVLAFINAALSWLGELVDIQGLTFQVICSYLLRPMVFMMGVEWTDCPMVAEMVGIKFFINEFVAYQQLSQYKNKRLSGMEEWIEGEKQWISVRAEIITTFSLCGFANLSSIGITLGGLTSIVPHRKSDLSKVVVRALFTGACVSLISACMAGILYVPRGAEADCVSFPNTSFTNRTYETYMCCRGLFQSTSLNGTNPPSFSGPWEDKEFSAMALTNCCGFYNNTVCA
Experimental: Human CNT2 cDNA was obtained by PCR amplification of human kidney cDNA (CLONTECH). PCR reaction solution contained 1 μL cDNA, 2 units Platinum taq DNA polymerase high fidelity (Invitrogen), 1 μM primers (Forward: 5′-AGGAGCCAGAGGGAATCAAT-3′, Reverse: 5′-ACATCTTGGTGAGTGAGTTG-3′). Amplifications for 1 cycle at 94° C. for 2 minutes, 32 cycles at 94° C. for 30 seconds, 58° C. for 30 seconds and 68° C. for 3 minutes were performed and PCR products were ligated into PCR-II-TOPO vector (Invitrogen). PCR reaction was performed with primers containing restriction enzyme sites and the constructed plasmid as a template. PCR reaction solution contained 100 ng plasmid, 2 units Pyrobest DNA polymerase (Takara), 330 nM primers (Forward: 5′-CCGCTCGAGAGGAGCCAGAGGGAATCAAT-3′, Reverse: 5′-CGTCTAGAACATCTTGGTGAGTGAGTTG-3′). Amplifications for 1 cycle at 95° C. for 3 minutes, 15 cycles at 98° C. for 10 seconds, 60° C. for 30 seconds and 72° C. for 1 minute and 1 cycle at 72° C. for 7 minutes were performed, and the PCR products were ligated into PCI-neo mammalian expression vector (Promega). The amino acid sequence of cloned human CNT2 was substituted at P22L (codon, CCG to CTG), S45C (codon, AGC to TGC) and I160M (codon, ATA to ATG) compared to a reported amino acid sequence for human CNT2 (NCBI Accession No. AAC51930).
Expression plasmid of human CNT2 was transfected into COS-7 cells (RIKEN CELL BANK RCB0539) by lipofection method. LIPOFECTAMINE 2000 (Invitrogen) was used as a lipofection reagent. COS-7 cells were diluted in D-MEM (Invitrogen) containing 10% fetal calf serum (Sanko Junyaku) at 5×10^5/1 mL, and seeded into collagen-coated 96-well plates (IWAKI) at 100 μL/well and cultured at 37° C. for 2 hours with 5% CO2 condition. For each well, 0.6 μL of LIPOFECTAMINE 2000 (Invitrogen) was diluted in 25 μL of OPTI-MEM (Invitrogen), and incubated for 7 minutes at room temperature (hereinafter referred to as Lipo 2000-OPTI). For each well, 0.3 μg of plasmid was diluted in 25 μL of OPTI-MEM (Invitrogen), and the solution was added to the Lipo 2000-OPTI and mixed gently and incubated for 30 minutes at room temperature, and was transferred 50 μL for each well to culture medium. The cells were incubated at 37° C. with 5% CO2 condition for 2 days, and used for the uptake assays.
An Uptake buffer was prepared by addition of a mixture of non-radioisotope labeled (Sigma) and ^14C-labeled (Amersham Biosciences) adenosine at the final concentration of 10 μM into a buffer, pH 7.4, containing 140 mM sodium chloride, 2 mM potassium chloride, 1 mM calcium chloride, 1 mM magnesium chloride, 10 mM HEPES 2-[4-(2-hydroxyethyl)-1-piperazinyl]ethane sulfonic acid, 5 mM tris(hydroxymethyl)aminomethane and 5 mM glucose. For measurement of basal uptake, Basal uptake measurement buffer, which contained 140 mM choline chloride instead of sodium chloride was prepared. […]. After removing culture medium of human CNT2 transiently expressing cells, Pretreatment buffer (Basal uptake measurement buffer without adenosine and glucose) was added to wells at 200 μL/well and incubated at 37° C. for 10 minutes. After repeating the same step again, Pretreatment buffer was removed and Measurement buffers and Basal uptake measurement buffer were added at 75 μL/well and incubated at 37° C. After incubation for 30 minutes, Measurement buffers and Basal uptake measurement buffer were removed, and the cells were washed with Washing buffer (Basal uptake measurement buffer with non-radioisotope labeled adenosine at 10 μM) at 200 μL/well twice. The cells were solubilized with 0.2 mol/L sodium hydroxide at 75 μL/well, and the cell lysates were transferred into PicoPlates (Perkin Elmer). After mixing with 150 μL of MicroScint-40 (Perkin Elmer), radioactivity was measured by means of scintillation counter (Perkin Elmer). […]

[1] = Effects of CNT2 inhibitors on plasma uric acid level (purine tolerance test in rats); format: in vivo; conditions: Male SD-IGS rats; oxonic acid 100 mg/kg s.c.; purine mix 50 mg/kg and test compound 10 mg/kg orally; blood after 1 hour; control group = 100%; Example 28 by HPLC, Examples 89 and 90 by phosphotungstic acid method
Experimental: Male SD-IGS rats (5 weeks old) which were fasted overnight, were subcutaneously treated with oxonic acid (Aldrich; 100 mg/kg), and after 1 hour, purine mix (Adenosine:Inosine:Guanosine=1:1:1 (Adenosine (Sigma), Inosine (WAKO), Guanosine (ICN); 50 mg/kg) and test compounds (10 mg/kg) were orally administrated simultaneously. A control group was treated with oxonic acid and the purine mix, and a group administrated only oxonic acid represented endogenous plasma uric acid value. After 1 hour, blood was collected from the abdominal aorta under ether anesthesia, and the plasma was collected with Venoject II vacuum blood collecting tube (Terumo, VP-FH052). According to the method described in Journal of Chromatography B, Vol. 744 (2000), pp. 129-138, plasma uric acid level in a compound of Example 28 was measured by using HPLC method mentioned below. Plasma uric acid levels in compounds of Examples 89 and 90 were measured by phosphotungstic acid method. Uric acid-Test Wako (WAKO) was used as a measurement reagent. As there is no difference of uric acid values between the HPLC method and the phosphotungstic acid method, uric acid value can be measured by either of both methods (for example, see the above Management guideline, pp. 18-19). The difference between plasma uric acid value in each study group and endogenous plasma uric acid value was calculated on the basis of 100% in the control group.
Theophylline (10 μg) as an internal standard substance was added to 0.1 mL of plasma collected with the above method, and then the samples were deproteinized with 1 mL of methanol. After the samples were centrifuged, the methanol layers were evaporated to dryness under a stream of nitrogen. […] Plasma uric acid concentration was determined by HPLC method according to the condition described below. […]
• Column: Inertsil ODS-2 (4.6×250 mm) • Mobile phase • A solution: acetonitrile • B solution: 10 mM phosphate buffer (pH 3.0) • A linear gradient elution method: A solution 2% to A solution 22% (25 minutes) • Column temperature: 40° C. • Flow rate: 0.5 mL/minute • Detection absorbance: 284 nm

ENT2 = biological target: T2, ENT2 (Homo sapiens, UniProt Q14542); conditions: ENT2, high concentration of NBMPR; cited from earlier work
T2 sequence (Q14542 1-456): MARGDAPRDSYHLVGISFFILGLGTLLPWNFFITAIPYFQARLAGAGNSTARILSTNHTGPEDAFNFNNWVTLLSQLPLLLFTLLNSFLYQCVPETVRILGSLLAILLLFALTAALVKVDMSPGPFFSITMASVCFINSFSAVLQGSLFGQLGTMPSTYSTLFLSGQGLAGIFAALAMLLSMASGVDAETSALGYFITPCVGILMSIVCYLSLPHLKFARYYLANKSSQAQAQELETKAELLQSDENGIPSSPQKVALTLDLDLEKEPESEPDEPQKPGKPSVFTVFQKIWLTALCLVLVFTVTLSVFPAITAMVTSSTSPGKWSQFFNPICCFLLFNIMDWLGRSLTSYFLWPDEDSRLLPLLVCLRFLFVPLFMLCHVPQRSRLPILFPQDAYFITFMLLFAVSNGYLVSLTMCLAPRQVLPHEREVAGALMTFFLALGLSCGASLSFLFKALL

SMILES	IC50 (human CNT2) [nM]	Percentage of increment of plasma uric acid level (%) [1]	IC50 (ENT2) [nM]
NC(=O)C1CCN(CCCOc2cccc(CNc3nc4ccccc4n3[C@@H]3O[C@H](CO)[C@@H](O)[C@H]3O)c2)CC1 [Example 89, 2-{3-[3-(4-Carbamoylpiperidin-1-yl)propoxy]benzylamino}-1-(β-D-ribofuranosyl)-1H-benzimidazole]	55	24.9% (p < 0.01)	–
CN(C)CCCOc1cccc(CNc2nc3ccccc3n2[C@@H]2O[C@H](CO)[C@@H](O)[C@H]2O)c1 [Example 90]	184	45.6% (p < 0.05)	–
NCCCOc1cc(CNc2nc3ccccc3n2[C@@H]2O[C@H](CO)[C@@H](O)[C@H]2O)ccc1-c1ccccc1 [Example 51, 2-[3-(3-Aminopropoxy)-4-phenylbenzylamino]-1-(β-D-ribofuranosyl)-1H-benzimidazole]	9	–	–
CCOc1ccc(CNc2nc3ccccc3n2[C@@H]2O[C@H](CO)[C@@H](O)[C@H]2O)cc1OCCCCO [Example 34, 2-[4-Ethoxy-3-(4-hydroxybutoxy)benzylamino]-1-(β-D-ribofuranosyl)-1H-benzimidazole]	104	–	–
CCCCOc1ccc(CNc2nc3ccccc3n2[C@@H]2O[C@H](CO)[C@@H](O)[C@H]2O)cc1OCCCCO [Example 37]	213	–	–
CCCOc1ccc(CNc2nc3ccccc3n2[C@@H]2O[C@H](CO)[C@@H](O)[C@H]2O)cc1OCCCCO [Example 36]	150	–	–
OCCCCOc1cc(CNc2nc3ccccc3n2[C@@H]2O[C@H](CO)[C@@H](O)[C@H]2O)ccc1-c1ccccc1 [Example 28, 2-[3-(4-Hydroxybutoxy)-4-phenylbenzylamino]-1-(β-D-ribofuranosyl)-1H-benzimidazole]	46	15.2% (p < 0.01)	–
C[N+](C)(CCO)CCCOc1cccc(CNc2nc3ccccc3n2[C@@H]2O[C@H](CO)[C@@H](O)[C@H]2O)c1 [Example 93]	172	–	–
O=[N+]([O-])c1ccc(CSc2ncnc3c2ncn3C2OC(CO)C(O)C2O)cc1 (stereo not drawn) [NBMPR, nitrobenzylthioinosine]	–	–	> 1000
